In patent US20240101546A1, “HETEROARYL-ACETYLENES, PHARMACEUTICAL COMPOSITIONS THEREOF, AND THEIR THERAPEUTIC APPLICATIONS” (Eubulus Biotherapeutics Inc., priority 2020, published 2024):

The compounds below were run on lung cancer cell line NCI-H82 (assay: Cell proliferation assay, NCI-H82 (CELL-TITER GLO)). Settings: Homo sapiens, NCI-H82, 72 h, NCI-H82 cells, 72 h incubation, cell viability by CELL-TITER GLO, top concentration 1 μM; read-out: EC50, Inhibition of NCl-H82 Cell Proliferation.
Format: cell-based
How it was run: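 NCI-H82 cells, 1,000 per well in RPMI1640, were treated after overnight plating with a 3-fold dilution series from 1 μM. Viability read by CellTiter-Glo luminescence after 72 h. EC50 derived from the curves.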

| EC50 | Compound |
| --- | --- |
| ≤ 200 nM | C#Cc1nc(NC(=O)N[C@@H](CO)c2ccc(-c3cccnc3N(C)C)c(Cl)c2)cs1 [Compound A100, (R)-1-(1-(3-Chloro-4-(2-(dimethylamino)pyridin-3-yl)phenyl)-2-hydroxyethyl)-3-(2-ethynylthiazol-4-yl)urea] |
| ≤ 200 nM | C#Cc1nc(NC(=O)N[C@@H](COC(N)=O)c2ccc(-c3cccnc3N(C)C)c(Cl)c2)cs1 [Compound A101, (R)-2-(3-Chloro-4-(2-(dimethylamino)pyridin-3-yl)phenyl)-2-(3-(2-ethynyl-thiazol-4-yl)ureido)ethyl carbamate] |
| ≤ 200 nM | C#Cc1nc(NC(=O)N[C@@H](CO)c2ccc(-c3cccnc3N3CC(F)(F)C3)cc2)cs1 [Compound A102, (R)-1-(1-(4-(2-(3,3-Difluoroazetidin-1-yl)pyridin-3-yl)phenyl)-2-hydroxyethyl)-3-(2-ethynylthiazol-4-yl)urea] |
| ≤ 200 nM | C#Cc1nc(NC(=O)N[C@@H](COC(N)=O)c2ccc(-c3cccnc3N3CC(F)(F)C3)cc2)cs1 [Compound A103, (R)-2-(4-(2-(3,3-Difluoroazetidin-1-yl)pyridin-3-yl)phenyl)-2-(3-(2-ethynyl-thiazol-4-yl)ureido)ethyl carbamate] |
| ≤ 200 nM | C#Cc1nc(NC(=O)N[C@@H](CO)c2ccc(-c3cccc4ccnc(O)c34)cc2)cs1 [Compound A104, (R)-1-(2-Ethynylthiazol-4-yl)-3-(2-hydroxy-1-(4-(1-hydroxyisoquinolin-8-yl)-phenyl)ethyl)urea] |
| ≤ 200 nM | C#Cc1nc(NC(=O)N[C@@H](COC(N)=O)c2ccc(-c3cccc4ccnc(O)c34)cc2)cs1 [Compound A105, (R)-2-(3-(2-Ethynylthiazol-4-yl)ureido)-2-(4-(1-hydroxyisoquinolin-8-yl)phenyl)-ethyl carbamate] |
| ≤ 200 nM | C#Cc1nc(NC(=O)N[C@@H](CO)c2ccc(-c3cccc4ccnc(O)c34)c(Cl)c2)cs1 [Compound A107, (R)-1-(1-(3-Chloro-4-(1-hydroxyisoquinolin-8-yl)phenyl)-2-hydroxyethyl)-3-(2-ethynylthiazol-4-yl)urea] |
| 200 to 1000 nM | C#Cc1nnc(NC(=O)N[C@@H](CO)c2ccc(-c3cccc4ccnc(O)c34)cc2)s1 [Compound A108, (R)-1-(5-Ethynyl-1,3,4-thiadiazol-2-yl)-3-(2-hydroxy-1-(4-(1-hydroxyisoquinolin-8-yl)phenyl)ethyl)urea] |
| ≤ 200 nM | C#Cc1nc(NC(=O)N[C@@H](CO)c2ccc(-c3cccc4ncnc(O)c34)cc2)cs1 [Compound A109, (R)-1-(2-Ethynylthiazol-4-yl)-3-(2-hydroxy-1-(4-(4-hydroxyquinazolin-5-yl)phenyl)ethyl)urea] |
| ≤ 200 nM | C#Cc1nc(NC(=O)N[C@@H](CO)c2ccc(-c3cccc4ncnc(O)c34)c(Cl)c2)cs1 [Compound A110, (R)-1-(1-(3-Chloro-4-(4-hydroxyquinazolin-5-yl)phenyl)-2-hydroxyethyl)-3-(2-ethynylthiazol-4-yl)urea] |
| ≤ 200 nM | C#Cc1nc(NC(=O)N(C)[C@@H](CO)c2ccc(-c3cccc4ncsc34)cc2)cs1 [Compound A111, (R)-1-(1-(4-(Benzo[d]thiazol-7-yl)phenyl)-2-hydroxyethyl)-3-(2-ethynylthiazol-4-yl)-1-methylurea] |
| ≤ 200 nM | C#Cc1nc(N(C)C(=O)N[C@@H](CO)c2ccc(-c3cccc4ncsc34)cc2)cs1 [Compound A112, (R)-3-(1-(4-(Benzo[d]thiazol-7-yl)phenyl)-2-hydroxyethyl)-1-(2-ethynylthiazol-4-yl)-1-methylurea] |
| 200 to 1000 nM | C#Cc1nc(N(C)C(=O)N(C)[C@@H](CO)c2ccc(-c3cccc4ncsc34)cc2)cs1 [Compound A113, (R)-1-(1-(4-(Benzo[d]thiazol-7-yl)phenyl)-2-hydroxyethyl)-3-(2-ethynylthiazol-4-yl)-1,3-dimethylurea] |
| ≤ 200 nM | C#Cc1nc(NC(=O)N[C@@H](CO)c2ccc(-c3cccc4ncsc34)cn2)cs1 [Compound A114, (R)-1-(1-(5-(Benzo[d]thiazol-7-yl)pyridin-2-yl)-2-hydroxyethyl)-3-(2-ethynyl-thiazol-4-yl)urea] |
| ≤ 200 nM | C#Cc1nc(NC(=O)N[C@@H](CS(N)(=O)=O)c2ccc(-c3ccc(F)c4ncsc34)c(Cl)c2)cs1 [Compound A115, (R)-2-(3-Chloro-4-(4-fluorobenzo[d]thiazol-7-yl)phenyl)-2-(3-(2-ethynylthiazol-4-yl)ureido)ethane-1-sulfonamide] |
| ≤ 200 nM | C#Cc1nc(NC(=O)N[C@@H](COC(=O)[C@@H](N)C(C)C)c2ccc(-c3cccc4ncsc34)cc2)cs1 [Compound A116, (R)-2-(4-(Benzo[d]thiazol-7-yl)phenyl)-2-(3-(2-ethynylthiazol-4-yl)ureido)ethyl L-valinate] |
| ≤ 200 nM | C#Cc1nc(NC(=O)N[C@@H](COC(=O)CCC/C=C\C/C=C\C/C=C\C/C=C\CCCCC)c2ccc(-c3cccc4ncsc34)cc2)cs1 [Compound A117, (5Z,8Z,11Z,14Z)—(R)-2-(4-(Benzo[d]thiazol-7-yl)phenyl)-2-(3-(2-ethynylthiazol-4-yl)ureido)ethyl icosa-5,8,11,14-tetraenoate] |
| 200 to 1000 nM | C#Cc1ncc(NC(=O)N[C@@H](CO)c2ccc(-c3cccc4ncsc34)cc2)s1 [Compound A118, (R)-1-(1-(4-(Benzo[d]thiazol-7-yl)phenyl)-2-hydroxyethyl)-3-(2-ethynylthiazol-5-yl)urea] |

| EC50 | Compound |
| --- | --- |
| ≤ 200 nM | C#Cc1nc(NC(=O)N[C@@H](CO)c2ccc(-c3cccc4ncsc34)cc2)c(C)s1 [Compound A119, (R)-1-(1-(4-(Benzo[d]thiazol-7-yl)phenyl)-2-hydroxyethyl)-3-(2-ethynyl-5-methylthiazol-4-yl)urea] |
| ≤ 200 nM | C#Cc1nnc(NC(=O)N[C@@H](CO)c2ccc(-c3cccc4ncsc34)cc2)s1 [Compound A120, (R)-1-(1-(4-(Benzo[d]thiazol-7-yl)phenyl)-2-hydroxyethyl)-3-(5-ethynyl-1,3,4-thiadiazol-2-yl)urea] |
| 200 to 1000 nM | C#Cc1nc(NC(=O)N[C@@H](CO)c2ccc(-c3cccc4ncsc34)cc2)ns1 [Compound A122, (R)-1-(1-(4-(Benzo[d]thiazol-7-yl)phenyl)-2-hydroxyethyl)-3-(5-ethynyl-1,2,4-thiadiazol-3-yl)urea] |
| ≤ 200 nM | C#Cc1ccnc(NC(=O)N[C@@H](CO)c2ccc(-c3cccc(N4CCCC4)n3)cc2)n1 [Compound A123, (R)-1-(4-Ethynylpyrimidin-2-yl)-3-(2-hydroxy-1-(4-(6-(pyrrolidin-1-yl)pyridin-2-yl)phenyl)ethyl)urea] |
| 200 to 1000 nM | C#Cc1cccc(NC(=O)N[C@@H](CO)c2ccc(-c3cccc(N4CCCC4)n3)cc2)n1 [Compound A124, (R)-1-(6-Ethynylpyridin-2-yl)-3-(2-hydroxy-1-(4-(6-(pyrrolidin-1-yl)pyridin-2-yl)phenyl)ethyl)urea] |
| ≤ 200 nM | C#Cc1nccc(NC(=O)N[C@@H](CO)c2ccc(-c3cccc(N4CCCC4)n3)cc2)n1 [Compound A125, (R)-1-(2-Ethynylpyrimidin-4-yl)-3-(2-hydroxy-1-(4-(6-(pyrrolidin-1-yl)pyridin-2-yl)phenyl)ethyl)urea] |
| ≤ 200 nM | C#Cc1nc(NC(=O)N[C@@H](CO)c2ccc(N3CC(F)(F)C3)cc2)cs1 [Compound A126, (R)-1-(1-(4-(3,3-Difluoroazetidin-1-yl)phenyl)-2-hydroxyethyl)-3-(2-ethynyl-thiazol-4-yl)urea] |
| ≤ 200 nM | C#Cc1nc(NC(=O)N[C@@H](COC(N)=O)c2ccc(N3CC(F)(F)C3)cc2)cs1 [Compound A127, (R)-2-(4-(3,3-Difluoroazetidin-1-yl)phenyl)-2-(3-(2-ethynylthiazol-4-yl)ureido)-ethyl carbamate] |
| ≤ 200 nM | C#Cc1nc(NC(=O)N[C@@H](CO)c2ccc(N3CCCC3)cc2)cs1 [Compound A128, (R)-1-(2-Ethynylthiazol-4-yl)-3-(2-hydroxy-1-(4-(pyrrolidin-1-yl)phenyl)ethyl)-urea] |
| ≤ 200 nM | C#Cc1nc(NC(=O)N[C@@H](CO)c2ccc(N3CCCC3=O)cc2)cs1 [Compound A129, (R)-1-(2-Ethynylthiazol-4-yl)-3-(2-hydroxy-1-(4-(2-oxopyrrolidin-1-yl)phenyl)-ethyl)urea] |
| ≤ 200 nM | C#Cc1nc(NC(=O)N[C@@H](CO)c2ccc(N3CCC(F)(F)C3)cc2)cs1 [Compound A130, (R)-1-(1-(4-(3,3-Difluoropyrrolidin-1-yl)phenyl)-2-hydroxyethyl)-3-(2-ethynyl-thiazol-4-yl)urea] |
| ≤ 200 nM | C#Cc1nc(NC(=O)N[C@@H](CO)c2ccc(N3CCCCC3=O)cc2)cs1 [Compound A131, (R)-1-(2-Ethynylthiazol-4-yl)-3-(2-hydroxy-1-(4-(2-oxopiperidin-1-yl)phenyl)-ethyl)urea] |
| ≤ 200 nM | C#Cc1nc(NC(=O)N[C@@H](CO)c2ccc(-n3ccccc3=O)cc2)cs1 [Compound A132, (R)-1-(2-Ethynylthiazol-4-yl)-3-(2-hydroxy-1-(4-(2-oxopyridin-1(2H)-yl)phenyl)-ethyl)urea] |
| ≤ 200 nM | C#Cc1nc(NC(=O)N[C@@H](CO)c2ccc(N3CCOCC3)cc2)cs1 [Compound A133, (R)-1-(2-Ethynylthiazol-4-yl)-3-(2-hydroxy-1-(4-morpholinophenyl)ethyl)urea] |
| 200 to 1000 nM | C#Cc1nc(NC(=O)N[C@@H](CO)c2ccc(N3CCOCC3=O)cc2)cs1 [Compound A134, (R)-1-(2-Ethynylthiazol-4-yl)-3-(2-hydroxy-1-(4-(3-oxomorpholino)phenyl)-ethyl)urea] |
| ≤ 200 nM | C#Cc1nc(NC(=O)N[C@@H](CO)c2ccc(N3CCCCC3)cn2)cs1 [Compound A135, (R)-1-(2-Ethynylthiazol-4-yl)-3-(2-hydroxy-1-(5-(piperidin-1-yl)pyridin-2-yl)-ethyl)urea] |
| ≤ 200 nM | C#Cc1nc(NC(=O)N[C@@H](CO)c2ccc(N3CCCC(F)(F)C3)cn2)cs1 [Compound A136, (R)-1-(1-(5-(3,3-Difluoropiperidin-1-yl)pyridin-2-yl)-2-hydroxyethyl)-3-(2-ethynylthiazol-4-yl)urea] |
